Measurements reported in PMC5732813, “Novel piplartine-containing ruthenium complexes: synthesis, cell growth inhibition, apoptosis induction and ROS production on HCT116 cells” (Oncotarget, 2017).
Where “and” joins values, the source holds several entries; their conditions need not be identical. Identical values can stand only once. Like-named read-outs stand apart in the source and are kept apart here.

Tests used:
[1] = tested on: HSC-3 (human oral squamous cell carcinoma); experiment: Cytotoxic activity, alamar blue assay, HSC-3; assay type: cell-based; details: for more potent than metal-free piplartine: HSC3, IC50 72h
Description: (§1) HCT116 (human colon carcinoma), HepG2 (human hepatocellular carcinoma), HSC-3 (human oral squamous cell carcinoma), SCC-4 (human oral squamous cell carcinoma), SCC-9 (human oral squamous cell carcinoma), HL-60 (human promyelocytic leukemia), K-562 (human chronic myelogenous leukemia), B16-F10 (murine melanoma), MRC-5 (human lung fibroblast), WT SV40 MEF (wild-type immortalized mouse embryonic fibroblast) and BAD KO SV40 MEF (BAD gene knockout immortalized mouse embryonic fibroblast) cell lines were obtained from the American Type Culture Collection (ATCC, Manassas, VA, USA) and cultured in RPMI-1640 medium (Gibco-BRL, Gaithersburg, MD, USA) with 10% fetal bovine serum (Life, Carlsbad, CA, USA), 2 mM L-glutamine (Vetec Química Fina, Duque de Caxias, RJ, Brazil) and 50 μg/mL gentamycin (Life, Carlsbad, CA, USA). Adherent cells were collected by treatment with 0.25% trypsin EDTA solution (Gibco-BRL, Gaithersburg, MD, USA). All cell lines were cultured in flasks at 37°C in 5% CO2 and sub-cultured every 3-4 days to maintain exponential growth.
(§2) Cell viability was quantified using the alamar blue assay, according to Ahmed et al.. Cells were inserted in 96-well plates for all experiments (7 x 10^4 cells/mL for adherent cells or 3 x 10^5 cells/mL for suspended cells in 100 μL of medium). […] Negative controls received the vehicle that was used for diluting the compounds tested.

[2] = tested on: cancer multicellular spheroids formed from HCT116 cells; experiment: 3D multicellular spheroids culture, alamar blue assay; assay type: cell-based, human; details: for more potent than metal-free piplartine: 3D spheroids of HCT116, IC50 72 h
Experimental: as §2
HCT116 cells were cultivated in 3D multicellular spheroids. Briefly, 100 μL of a solution of cells (0.5 x 10^6 cells/mL) were inserted in 96-well plate with a cell-repellent surface (Greiner Bio-One, Kremsmünster, Austria) and cultured in RPMI 1640 medium with 10% fetal bovine serum, 2 mM glutamine, 3% matrigel (BD Biosciences, San Jose, CA, EUA) and 50 μg/mL gentamycin at 37°C with 5% CO2. […] Negative control received the vehicle that was used for diluting the compounds tested. In the end of the experiment, morphological changes were examined by light microscopy (Olympus BX41, Tokyo, Japan) using Image-Pro software (Media Cybernetics, Inc. Silver Spring, USA) and the cell viability was determined by alamar blue assay as described above.

[3] = tested on: K-562 (human chronic myelogenous leukemia); experiment: Cytotoxic activity, alamar blue assay, K-562; assay type: cell-based; details: for more potent than metal-free piplartine: K562, IC50 72h
Description: as §1, §2

[4] = tested on: BAD KO SV40 MEF (BAD gene knockout immortalized mouse embryonic fibroblast); experiment: Cytotoxic activity, alamar blue assay, BAD KO SV40 MEF; assay type: cell-based
Description: as §1, §2

[5] = tested on: SCC-4 (human oral squamous cell carcinoma); experiment: Cytotoxic activity, alamar blue assay, SCC-4; assay type: cell-based; details: for more potent than metal-free piplartine: SCC4, IC50 72h
Description: as §1, §2

[6] = tested on: WT SV40 MEF (wild-type immortalized mouse embryonic fibroblast); experiment: Cytotoxic activity, alamar blue assay, WT SV40 MEF; assay type: cell-based
Description: as §1, §2

[7] = tested on: HepG2 (human hepatocellular carcinoma); experiment: Cytotoxic activity, alamar blue assay, HepG2; assay type: cell-based; details: for more potent than metal-free piplartine: HepG2, IC50 72h
Description: as §1, §2

[8] = tested on: B16-F10 (murine melanoma); experiment: Cytotoxic activity, alamar blue assay, B16-F10; assay type: cell-based; details: for more potent than metal-free piplartine: B16-F10, IC50 72h
Description: as §1, §2

[9] = tested on: HCT116 cells; experiment: Internucleosomal DNA fragmentation and cell cycle distribution (DNA content, flow cytometry); assay type: cell-based, human
Experimental: Cells were harvested in a permeabilization solution containing 0.1% triton X-100 (Sigma Chemical Co. St Louis, MO, USA), 2 μg/mL propidium iodide (Sigma Chemical Co. St Louis, MO, USA), 0.1% sodium citrate and 100 μg/mL RNAse (Sigma Chemical Co. St Louis, MO, USA) and incubated in the dark for 15 min at room temperature.

[10] = tested on: SCC-9 (human oral squamous cell carcinoma); experiment: Cytotoxic activity, alamar blue assay, SCC-9; assay type: cell-based; details: for more potent than metal-free piplartine: SCC9, IC50 72h
Description: as §1, §2

[11] = 3D spheroids of HCT116, 72 h treatment, alamar blue, read-out: IC50
[12] = BAD KO SV40 MEF, 72 h incubation, alamar blue, read-out: IC50
[13] = WT SV40 MEF, 72 h incubation, alamar blue, read-out: IC50
[14] = HCT116, 1 μM, 24h, mean ± S.E.M.
[15] = HCT116, 1 μM, 48h, mean ± S.E.M.
[16] = HCT116, 10 μM, 24h, mean ± S.E.M.
[17] = HCT116, 10 μM, 48h, mean ± S.E.M.

| Compound | more potent than metal-free piplartine [1] [fold] | IC50 [2, 11] [µM] | more potent than metal-free piplartine [2] | more potent than metal-free piplartine [3] [fold] | IC50 [4, 12] [µM] | more potent than metal-free piplartine [5] [fold] | IC50 [6, 13] [µM] | more potent than metal-free piplartine [7] [fold] | more potent than metal-free piplartine [8] [fold] | DNA content (%) S [9] | more potent than metal-free piplartine [10] [fold] | Selectivity index (SI) ([1]; SI = IC50[MRC-5]/IC50[HSC-3]) | Selectivity index (SI) ([1]; SI = IC50[PBMC]/IC50[HSC-3]) | Selectivity index (SI) ([3]; SI = IC50[MRC-5]/IC50[K-562]) | Selectivity index (SI) ([3]; SI = IC50[PBMC]/IC50[K-562]) | Selectivity index (SI) ([5]; SI = IC50[MRC-5]/IC50[SCC-4]) | Selectivity index (SI) ([5]; SI = IC50[PBMC]/IC50[SCC-4]) | Selectivity index (SI) ([7]; SI = IC50[MRC-5]/IC50[HepG2]) | Selectivity index (SI) ([7]; SI = IC50[PBMC]/IC50[HepG2]) | Selectivity index (SI) ([8]; SI = IC50[MRC-5]/IC50[B16-F10]) | further results |
| --- | --- | --- | --- | --- | --- | --- | --- | --- | --- | --- | --- | --- | --- | --- | --- | --- | --- | --- | --- | --- | --- |
| [Ru(piplartine)(dppb)(bipy)](PF6)2 [Complex 2] | 6 | 8.3 | ~2 fold | 3 | 4 | 3 | 6 | 3 | 3 | 18.7 ± 1.8% and 15.6 ± 1.8% and 21.2 ± 2.6% and 18.0 ± 1.3% | 2 | – | – | – | – | – | – | – | – | – | – |
| COc1cccc2c1C(=O)c1c(O)c3c(c(O)c1C2=O)C[C@@](O)(C(=O)CO)C[C@@H]3O[C@H]1C[C@H](N)[C@H](O)[C@H](C)O1 [Doxorubicin] | – | – | – | – | – | – | – | – | – | – | – | – | – | – | – | – | – | – | – | – | IC50 ([2]; Homo sapiens, HCT-116, 3D spheroids of HCT116, 72 h treatment, alamar blue, read-out: IC50): 6.3 µM; IC50 ([4]; Mus musculus, Fibroblast, BAD KO SV40 MEF, 72 h incubation, alamar blue, read-out: IC50): 0.41 µM; IC50 ([6]; Mus musculus, Fibroblast, WT SV40 MEF, 72 h incubation, alamar blue, read-out: IC50): 0.04 µM; IC50 ([8]; Mus musculus, B16-F10, 72h of incubation, alamar blue, with 95% confidence interval): 0.02 µM; DNA content (%) G0/G1 [9, 14]: 22.1 ± 2.4%; DNA content (%) G2/M [9, 14]: 59.0 ± 2.8 %; DNA content (%) Sub-G0/G1 [9, 14]: 5.2 ± 1.4%; DNA content (%) G0/G1 [9, 15]: 15.8 ± 2.0 %; DNA content (%) G2/M [9, 15]: 49.0 ± 5.9 %; DNA content (%) Sub-G0/G1 [9, 15]: 21.8 ± 5.4 %; IC50 ([10]; Homo sapiens, SCC-9, 72h of incubation, alamar blue, with 95% confidence interval): 2.6 µM |
| [Ru(piplartine)(dppf)(bipy)](PF6)2 [Complex 1] | 12 | 7.3 | approximately 3 fold | 5 | 3.2 | 5 | 2.4 | 4 | 4 | 11.5 ± 2.5% and 20.1 ± 1.4% and 13.5 ± 1.5% and 21.9 ± 2.5% | 4 | 5.7 | 3.0 | 1.0 | 0.5 | 1.1 | 0.6 | 2.0 | 1.1 | 1.2 | Selectivity index (SI) ([8]; SI = IC50[PBMC]/IC50[B16-F10]): 0.6; DNA content (%) G0/G1 [9]: 28.6 ± 5.9% and 39.4 ± 1.8% and 30.0 ± 5.8 % and 42.5 ± 1.7%; Selectivity index (SI) ([10]; SI = IC50[MRC-5]/IC50[SCC-9]): 0.8; Selectivity index (SI) ([10]; SI = IC50[PBMC]/IC50[SCC-9]): 0.4 |
| COc1cc(/C=C/C(=O)N2CCC=CC2=O)cc(OC)c1OC [Piplartine] | – | – | – | – | – | – | – | – | – | – | – | 2.3 | 4.6 | 0.9 | 1.8 | 1.1 | 2.2 | 2.7 | 5.4 | 1.6 | IC50 ([2]; Homo sapiens, HCT-116, 72 h): 22.1 µM; IC50 ([3]; Homo sapiens, K562, 72 h): 18.6 µM; IC50 ([4]; Mus musculus, Fibroblast, 72 h): 4 µM; IC50 ([6]; Mus musculus, Fibroblast, 72 h): 4.5 µM; IC50 ([7]; Homo sapiens, HepG2, 72 h): 6.3 µM; Selectivity index (SI) ([8]; SI = IC50[PBMC]/IC50[B16-F10]): 3.2; DNA content (%) G0/G1 [9, 16]: 22.7 ± 0.6%; DNA content (%) G2/M [9, 16]: 21.5 ± 2.9%; DNA content (%) S [9, 16]: 21.4 ± 2.3%; DNA content (%) Sub-G0/G1 [9, 16]: 20.3%; DNA content (%) Sub-G0/G1 ([9]; HCT116, 10 μM, 24h, mean ± S.E.M., listed as PL): 20.3 ± 1.8 %; DNA content (%) G0/G1 [9, 17]: 27.0 ± 2.9 %; DNA content (%) G2/M [9, 17]: 21.9 ± 0.9%; DNA content (%) S [9, 17]: 16.4 ± 2.2%; DNA content (%) Sub-G0/G1 [9, 17]: 33.9%; DNA content (%) Sub-G0/G1 ([9]; HCT116, 10 μM, 48h, mean ± S.E.M., listed as PL): 33.9 ± 5.8 %; Selectivity index (SI) ([10]; SI = IC50[MRC-5]/IC50[SCC-9]): 1.0; Selectivity index (SI) ([10]; SI = IC50[PBMC]/IC50[SCC-9]): 2.1 |
